Measured values from the kinase profiling compilation of Christmann-Franck et al. (2016).

Tests used:
Experiment in all cases: KINOMEscan competition binding
PRKD2 (human) = PRKD2 (human) (UniProt Q9BZL6); conditions: compound 10.0 µM
PRKD1 (human) = PRKD1 (human) (UniProt Q15139); conditions: compound 10.0 µM
PLK4 (human) = PLK4 (human) (UniProt O00444); conditions: compound 10.0 µM
MKNK2 (human) = MKNK2 (human) (UniProt Q9HBH9); conditions: compound 10.0 µM
CAMKK1 (human) = CAMKK1 (human) (UniProt Q8N5S9); conditions: compound 10.0 µM
ROS1 (human) = ROS1 (human) (UniProt P08922); conditions: compound 10.0 µM
RPS6KA6 KD2 (human) = RPS6KA6 KD2 (human) (UniProt Q9UK32); conditions: compound 10.0 µM
RIPK2 (human) = RIPK2 (human) (UniProt O43353); conditions: compound 10.0 µM
PDGFRB (human) = PDGFRB (human) (UniProt P09619); conditions: compound 10.0 µM
[1] = tested on: KIT (human), P10721 [V559D]; conditions: compound 10.0 µM
DCLK1 (human) = DCLK1 (human) (UniProt O15075)
CSF1R (human) = CSF1R (human) (UniProt P07333)
GAK (human) = GAK (human) (UniProt O14976)
NUAK1 (human) = NUAK1 (human) (UniProt O60285); conditions: compound 10.0 µM
PRKD3 (human) = PRKD3 (human) (UniProt O94806); conditions: compound 10.0 µM
MAPK7 (human) = MAPK7 (human) (UniProt Q13164)
KIT (human) = KIT (human) (UniProt P10721); conditions: compound 10.0 µM
[2] = tested on: ABL1 (human), P00519 [F317I]; conditions: compound 10.0 µM
TNK2 (human) = TNK2 (human) (UniProt Q07912); conditions: compound 10.0 µM
[3] = tested on: ABL1 (human), P00519 [F317L]; conditions: compound 10.0 µM
FRK (human) = FRK (human) (UniProt P42685)
MYLK4 (human) = MYLK4 (human) (UniProt Q86YV6); conditions: compound 10.0 µM
SGK110 (human) = SGK110 (human) (UniProt P0C264); conditions: compound 10.0 µM
PTK6 (human) = PTK6 (human) (UniProt Q13882)
TNK1 (human) = TNK1 (human) (UniProt Q13470)
DCLK2 (human) = DCLK2 (human) (UniProt Q8N568)
SRMS (human) = SRMS (human) (UniProt Q9H3Y6); conditions: compound 10.0 µM
FGFR4 (human) = FGFR4 (human) (UniProt P22455); conditions: compound 10.0 µM
RPS6KA1 KD2 (human) = RPS6KA1 KD2 (human) (UniProt Q15418); conditions: compound 10.0 µM

Chain of FRK (human) (P42685 whole entry, looked up): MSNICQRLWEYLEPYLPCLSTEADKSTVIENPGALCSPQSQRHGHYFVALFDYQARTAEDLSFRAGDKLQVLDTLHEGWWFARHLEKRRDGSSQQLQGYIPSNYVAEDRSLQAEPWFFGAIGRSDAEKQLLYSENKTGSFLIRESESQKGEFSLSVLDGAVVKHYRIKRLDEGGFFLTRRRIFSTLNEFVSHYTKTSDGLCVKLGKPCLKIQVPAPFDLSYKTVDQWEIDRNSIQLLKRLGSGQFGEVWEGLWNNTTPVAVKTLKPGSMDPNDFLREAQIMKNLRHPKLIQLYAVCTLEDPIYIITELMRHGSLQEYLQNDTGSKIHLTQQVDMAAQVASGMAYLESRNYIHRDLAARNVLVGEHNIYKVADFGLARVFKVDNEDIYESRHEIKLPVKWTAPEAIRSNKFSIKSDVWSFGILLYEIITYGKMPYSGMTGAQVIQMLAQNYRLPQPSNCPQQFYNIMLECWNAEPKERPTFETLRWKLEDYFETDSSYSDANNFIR
Chain of TNK1 (human) (Q13470 whole entry, looked up): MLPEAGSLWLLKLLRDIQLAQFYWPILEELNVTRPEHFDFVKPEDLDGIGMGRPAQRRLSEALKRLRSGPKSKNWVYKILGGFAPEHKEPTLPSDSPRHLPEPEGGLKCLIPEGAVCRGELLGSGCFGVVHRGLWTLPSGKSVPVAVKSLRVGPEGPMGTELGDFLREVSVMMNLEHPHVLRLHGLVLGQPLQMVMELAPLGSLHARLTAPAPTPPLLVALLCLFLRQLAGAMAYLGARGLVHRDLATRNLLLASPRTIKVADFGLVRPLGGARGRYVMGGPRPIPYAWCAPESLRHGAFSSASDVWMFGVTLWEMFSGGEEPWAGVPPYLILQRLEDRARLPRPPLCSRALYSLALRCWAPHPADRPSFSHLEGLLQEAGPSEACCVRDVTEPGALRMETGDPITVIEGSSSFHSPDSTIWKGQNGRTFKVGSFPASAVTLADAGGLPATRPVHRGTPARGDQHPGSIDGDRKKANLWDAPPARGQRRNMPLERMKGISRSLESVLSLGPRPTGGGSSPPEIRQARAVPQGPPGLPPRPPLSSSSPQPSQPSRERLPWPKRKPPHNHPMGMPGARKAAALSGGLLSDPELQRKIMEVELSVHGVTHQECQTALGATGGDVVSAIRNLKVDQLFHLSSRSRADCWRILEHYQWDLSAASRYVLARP
Chain of CSF1R (human) (P07333 whole entry, looked up): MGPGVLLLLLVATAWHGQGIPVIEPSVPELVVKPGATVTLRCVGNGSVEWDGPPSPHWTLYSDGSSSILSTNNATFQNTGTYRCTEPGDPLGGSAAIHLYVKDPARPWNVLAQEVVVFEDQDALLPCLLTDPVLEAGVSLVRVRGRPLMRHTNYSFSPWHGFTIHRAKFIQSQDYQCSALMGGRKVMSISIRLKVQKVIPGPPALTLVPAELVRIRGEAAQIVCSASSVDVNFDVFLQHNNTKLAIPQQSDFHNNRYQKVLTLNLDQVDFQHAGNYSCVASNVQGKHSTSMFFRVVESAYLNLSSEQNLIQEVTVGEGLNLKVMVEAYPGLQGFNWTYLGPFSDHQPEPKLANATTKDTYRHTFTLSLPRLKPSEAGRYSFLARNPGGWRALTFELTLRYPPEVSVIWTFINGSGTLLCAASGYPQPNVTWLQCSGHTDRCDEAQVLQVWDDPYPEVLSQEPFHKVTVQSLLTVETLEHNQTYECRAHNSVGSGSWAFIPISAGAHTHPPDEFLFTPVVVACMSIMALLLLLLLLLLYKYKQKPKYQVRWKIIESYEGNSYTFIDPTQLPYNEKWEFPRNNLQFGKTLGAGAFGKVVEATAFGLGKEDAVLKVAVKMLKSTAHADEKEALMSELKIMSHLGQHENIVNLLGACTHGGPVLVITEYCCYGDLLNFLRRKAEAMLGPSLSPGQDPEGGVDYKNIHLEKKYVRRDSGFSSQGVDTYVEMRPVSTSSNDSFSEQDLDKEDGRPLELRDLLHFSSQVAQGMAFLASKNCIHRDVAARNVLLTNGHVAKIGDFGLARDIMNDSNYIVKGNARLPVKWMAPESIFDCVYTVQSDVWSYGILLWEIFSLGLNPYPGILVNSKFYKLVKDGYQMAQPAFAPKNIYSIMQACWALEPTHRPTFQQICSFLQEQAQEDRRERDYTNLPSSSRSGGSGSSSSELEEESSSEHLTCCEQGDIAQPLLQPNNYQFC
Chain of DCLK2 (human) (Q8N568 whole entry, looked up): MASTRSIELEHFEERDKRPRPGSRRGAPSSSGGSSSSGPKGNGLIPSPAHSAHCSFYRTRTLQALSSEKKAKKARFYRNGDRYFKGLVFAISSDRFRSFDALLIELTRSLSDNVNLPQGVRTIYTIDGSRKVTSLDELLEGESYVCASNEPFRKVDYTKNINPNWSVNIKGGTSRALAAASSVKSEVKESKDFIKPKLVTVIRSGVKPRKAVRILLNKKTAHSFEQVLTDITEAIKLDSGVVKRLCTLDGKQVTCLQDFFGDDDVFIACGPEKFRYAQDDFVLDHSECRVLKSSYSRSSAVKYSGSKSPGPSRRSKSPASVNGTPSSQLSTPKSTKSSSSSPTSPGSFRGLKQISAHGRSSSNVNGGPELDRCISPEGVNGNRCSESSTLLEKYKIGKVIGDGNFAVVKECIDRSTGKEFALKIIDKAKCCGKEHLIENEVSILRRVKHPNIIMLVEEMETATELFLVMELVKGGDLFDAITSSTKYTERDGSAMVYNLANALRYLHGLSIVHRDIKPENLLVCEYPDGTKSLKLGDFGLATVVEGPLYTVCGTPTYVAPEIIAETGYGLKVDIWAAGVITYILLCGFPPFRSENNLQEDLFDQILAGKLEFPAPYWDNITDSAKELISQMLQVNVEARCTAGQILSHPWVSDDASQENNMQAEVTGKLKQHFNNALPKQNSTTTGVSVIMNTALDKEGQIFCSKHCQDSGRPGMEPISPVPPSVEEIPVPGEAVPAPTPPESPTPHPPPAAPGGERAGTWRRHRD
Chain of PTK6 (human) (Q13882 whole entry, looked up): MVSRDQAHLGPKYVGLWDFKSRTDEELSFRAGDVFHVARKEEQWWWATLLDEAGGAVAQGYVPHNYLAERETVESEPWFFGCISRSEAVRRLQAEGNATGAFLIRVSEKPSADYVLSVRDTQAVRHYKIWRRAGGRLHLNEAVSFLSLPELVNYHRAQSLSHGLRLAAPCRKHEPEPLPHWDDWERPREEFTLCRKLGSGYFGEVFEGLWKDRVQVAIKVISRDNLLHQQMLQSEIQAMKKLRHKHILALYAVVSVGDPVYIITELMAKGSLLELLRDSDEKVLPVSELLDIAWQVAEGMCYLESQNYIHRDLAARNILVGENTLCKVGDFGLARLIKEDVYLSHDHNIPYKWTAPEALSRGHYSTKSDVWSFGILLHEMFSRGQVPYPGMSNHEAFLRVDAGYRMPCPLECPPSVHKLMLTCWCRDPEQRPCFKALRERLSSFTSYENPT
Chain of DCLK1 (human) (O15075 whole entry, looked up): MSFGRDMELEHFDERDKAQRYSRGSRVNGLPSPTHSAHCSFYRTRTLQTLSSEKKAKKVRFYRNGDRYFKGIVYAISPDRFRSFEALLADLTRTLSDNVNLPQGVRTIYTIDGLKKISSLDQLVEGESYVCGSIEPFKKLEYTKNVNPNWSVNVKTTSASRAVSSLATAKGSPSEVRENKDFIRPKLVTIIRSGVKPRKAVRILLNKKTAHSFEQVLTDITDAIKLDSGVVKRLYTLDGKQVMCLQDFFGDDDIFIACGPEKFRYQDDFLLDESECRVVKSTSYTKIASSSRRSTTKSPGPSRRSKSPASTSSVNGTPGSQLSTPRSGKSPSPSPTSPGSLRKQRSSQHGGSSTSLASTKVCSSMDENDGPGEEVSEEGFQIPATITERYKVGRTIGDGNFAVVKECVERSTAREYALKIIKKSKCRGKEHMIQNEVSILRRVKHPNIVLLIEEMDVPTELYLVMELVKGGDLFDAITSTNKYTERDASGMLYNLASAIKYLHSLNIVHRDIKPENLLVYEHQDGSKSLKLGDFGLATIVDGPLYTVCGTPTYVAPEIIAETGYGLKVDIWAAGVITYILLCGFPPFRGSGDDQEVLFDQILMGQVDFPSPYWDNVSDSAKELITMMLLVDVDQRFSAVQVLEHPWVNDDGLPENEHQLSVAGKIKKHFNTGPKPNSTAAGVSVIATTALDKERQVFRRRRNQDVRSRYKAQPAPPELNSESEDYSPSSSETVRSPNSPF
Chain of MAPK7 (human) (Q13164 whole entry, looked up): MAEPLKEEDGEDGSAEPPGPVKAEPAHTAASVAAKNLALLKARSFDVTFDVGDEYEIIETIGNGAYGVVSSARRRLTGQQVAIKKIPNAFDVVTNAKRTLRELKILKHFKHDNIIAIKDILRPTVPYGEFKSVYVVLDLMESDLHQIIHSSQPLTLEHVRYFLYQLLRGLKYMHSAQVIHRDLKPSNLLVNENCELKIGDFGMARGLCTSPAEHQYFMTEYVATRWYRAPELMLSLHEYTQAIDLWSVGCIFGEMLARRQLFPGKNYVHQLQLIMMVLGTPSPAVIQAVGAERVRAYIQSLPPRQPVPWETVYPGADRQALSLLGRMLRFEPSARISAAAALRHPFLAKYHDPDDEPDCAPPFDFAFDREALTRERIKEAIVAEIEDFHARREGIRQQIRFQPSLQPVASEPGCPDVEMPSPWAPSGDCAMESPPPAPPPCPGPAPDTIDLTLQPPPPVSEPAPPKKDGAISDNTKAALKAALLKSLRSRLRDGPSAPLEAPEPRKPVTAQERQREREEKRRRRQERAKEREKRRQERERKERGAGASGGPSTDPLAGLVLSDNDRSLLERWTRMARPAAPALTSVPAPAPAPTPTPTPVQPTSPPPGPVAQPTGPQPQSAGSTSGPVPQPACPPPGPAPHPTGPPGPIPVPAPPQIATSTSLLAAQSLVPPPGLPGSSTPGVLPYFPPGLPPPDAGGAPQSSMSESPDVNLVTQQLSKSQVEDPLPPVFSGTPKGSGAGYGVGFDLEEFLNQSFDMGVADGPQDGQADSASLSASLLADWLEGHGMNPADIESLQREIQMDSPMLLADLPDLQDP

kinase still bound, per cent of control (PRKD2 (human)): 22%
kinase still bound, per cent of control (PRKD1 (human)): 21%
kinase still bound, per cent of control (PLK4 (human)): 8.2%
kinase still bound, per cent of control (MKNK2 (human)): 27%
kinase still bound, per cent of control (CAMKK1 (human)): 28%
kinase still bound, per cent of control (ROS1 (human)): 17%
kinase still bound, per cent of control (RPS6KA6 KD2 (human)): 14%
kinase still bound, per cent of control (RIPK2 (human)): 24%
kinase still bound, per cent of control (PDGFRB (human)): 29%
kinase still bound, per cent of control [1]: 22%
Kd (DCLK1 (human)): 280 nM
kinase still bound, per cent of control (DCLK1 (human); compound 10.0 µM): 0.9%
Kd (CSF1R (human)): 330 nM
kinase still bound, per cent of control (CSF1R (human); compound 10.0 µM): 1%
Kd (GAK (human)): 270 nM
kinase still bound, per cent of control (GAK (human); compound 10.0 µM): 3.8%
kinase still bound, per cent of control (NUAK1 (human)): 29%
kinase still bound, per cent of control (PRKD3 (human)): 32%
Kd (MAPK7 (human)): 670 nM
kinase still bound, per cent of control (MAPK7 (human); compound 10.0 µM): 0.5%
kinase still bound, per cent of control (KIT (human)): 12%
kinase still bound, per cent of control [2]: 3.9%
kinase still bound, per cent of control (TNK2 (human)): 0.3%
kinase still bound, per cent of control [3]: 8%
Kd (FRK (human)): 96 nM
kinase still bound, per cent of control (FRK (human); compound 10.0 µM): 0.8%
kinase still bound, per cent of control (MYLK4 (human)): 2.2%
kinase still bound, per cent of control (SGK110 (human)): 31%
Kd (PTK6 (human)): 37 nM
kinase still bound, per cent of control (PTK6 (human); compound 10.0 µM): 0.15%
Kd (TNK1 (human)): 110 nM
kinase still bound, per cent of control (TNK1 (human); compound 10.0 µM): 2.4%
Kd (DCLK2 (human)): 690 nM
kinase still bound, per cent of control (DCLK2 (human); compound 10.0 µM): 1.4%
kinase still bound, per cent of control (SRMS (human)): 18%
kinase still bound, per cent of control (FGFR4 (human)): 34%
kinase still bound, per cent of control (RPS6KA1 KD2 (human)): 21%
SMILES: COc1cc(N2CCN(C)CC2)ccc1Nc1ncc2c(n1)N(C)c1ccccc1C(=O)N2
